Key:
[1] = tested on: de novo synthesis of SM in CHO cells; experiment: Metabolic labeling of lipids with [14C]serine in CHO cells; type: cell-based, Chinese hamster
Method: CHO cells are cultured in Ham's F12 medium supplemented with 10% newborn bovine serum (NBS), penicillin G (100 unit/mL) and streptomycin sulfate (100 μg/mL) at the temperature of 33° C. and 5% CO2 atmosphere. In the case of HeLa cells, Dulbecco's minimum essential medium is used as a base medium instead of Ham's F12 medium.
Further, Nutridoma medium (Ham's F12 medium containing 1% Nutridoma-SP, product of Roche Molecular Biochemicals, and 25 μg/mL of gentamicin) is used as a serum-free medium. In the case when the medium is supplemented by DMSO or drugs dissolved in DMSO, the concentration of DMSO in culture medium is adjusted to be 0.01%.
CHO cells are seeded at the density of 1.0×10^6 cell in 5 mL of F12 medium containing 10% NBS, by per 60-mm dish, and cultured at 33° C. overnight. Then, the medium is changed to 1.5 mL of Nutridoma medium if necessary, various drugs are added and incubated at 4° C. for 15 minutes. Then, after addition of [^14C] serine (0.75 μCi) or [^14 C] choline (1.0 μCi) to the medium, cells were incubated at 33° C. for various periods of time.
Cells are washed twice with 2 mL of cold phosphate-buffered saline (PBS), and lysed with 900 μL of 0.1% sodium dodecyl sulfate (SDS). Then, 800 μL and 20 μL of lysate are used for lipid extraction and determination of protein concentration, respectively.
For the analysis of lipids labeled with [C^14C] serine, lipids were separated by TLC with a solvent consisting of methylacetate/n-propanol/chloroform/methanol/0.25%KCl (25:25:25:10:9, volume ratio) as a developing solvent.
Radioactive lipid separated on the TLC plates are detected with image analyzer depicted above. After the collection of gels from TLC plates by scraping, the radioactivity of each lipid is determined by liquid scintillation counting and normalized to the protein concentration of cells.

[2] = tested on: SM synthase; experiment: SM synthase enzyme assay, CHO membrane fraction; type: biochemical, Chinese hamster
[3] = target: T1, serine palmitoyltransferase (Cricetulus griseus, UniProt O54694+O54695); experiment: Serine palmitoyltransferase activity, CHO membrane fraction; type: biochemical, Chinese hamster; settings: 20 μM; data not shown
T1 construct: Membrane fraction prepared from CHO cells is used as an enzyme source; endogenous in cells; host or cells: CHO cells, membrane fraction
T1 sequence (O54695 1-473): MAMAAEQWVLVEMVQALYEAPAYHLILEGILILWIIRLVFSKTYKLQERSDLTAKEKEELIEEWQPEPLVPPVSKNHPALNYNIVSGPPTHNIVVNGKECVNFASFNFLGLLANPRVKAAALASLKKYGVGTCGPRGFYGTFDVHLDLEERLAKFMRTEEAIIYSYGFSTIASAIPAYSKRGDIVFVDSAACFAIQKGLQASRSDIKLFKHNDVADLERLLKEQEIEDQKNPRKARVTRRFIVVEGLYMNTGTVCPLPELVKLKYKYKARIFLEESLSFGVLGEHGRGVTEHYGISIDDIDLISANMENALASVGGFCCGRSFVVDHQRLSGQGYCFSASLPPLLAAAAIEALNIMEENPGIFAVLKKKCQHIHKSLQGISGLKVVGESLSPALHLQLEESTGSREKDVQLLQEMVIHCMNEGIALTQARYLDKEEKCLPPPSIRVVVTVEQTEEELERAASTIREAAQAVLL
T1 sequence (O54694 1-560): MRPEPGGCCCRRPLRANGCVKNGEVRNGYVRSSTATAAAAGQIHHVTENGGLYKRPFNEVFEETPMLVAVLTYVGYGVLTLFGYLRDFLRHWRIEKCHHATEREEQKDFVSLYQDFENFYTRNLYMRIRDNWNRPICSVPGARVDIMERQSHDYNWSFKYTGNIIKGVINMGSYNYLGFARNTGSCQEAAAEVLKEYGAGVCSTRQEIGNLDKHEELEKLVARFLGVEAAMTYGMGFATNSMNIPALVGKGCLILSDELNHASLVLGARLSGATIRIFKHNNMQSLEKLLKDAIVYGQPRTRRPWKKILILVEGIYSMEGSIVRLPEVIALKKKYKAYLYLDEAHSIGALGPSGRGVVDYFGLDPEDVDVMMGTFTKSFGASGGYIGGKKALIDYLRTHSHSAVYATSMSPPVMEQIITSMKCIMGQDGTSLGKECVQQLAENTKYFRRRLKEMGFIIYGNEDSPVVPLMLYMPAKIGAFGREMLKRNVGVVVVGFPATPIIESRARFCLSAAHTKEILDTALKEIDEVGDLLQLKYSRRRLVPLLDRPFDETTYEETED
Method: (§1) Membrane fraction prepared from CHO cells is used as an enzyme source.
(§2) Serine palmitoyltransferase activity is determined by the method disclosed in Document 7, and sphingosine N-acyl transferase activity is determined by a modification of the method disclosed in Document 7.

[4] = tested on: sphingosine N-acyl transferase; experiment: Sphingosine N-acyl transferase activity, CHO membrane fraction; type: biochemical, Chinese hamster; settings: 20 μM; data not shown
Method: as §1, §2

[5] = tested on: SM synthesis in BFA-treated cells; experiment: [14C]serine labeling in BFA-treated cells (ER and Golgi merged); type: cell-based, Chinese hamster; settings: 1 μM; cells treated with 1 μg/mL BFA (FIG. 5)
Method: For the metabolic labeling by [^14C] serine in BFA-treated cells, the cells are preincubated with 1 μg/mL BFA in Nutridoma medium at 33° C. for 30 minutes, then, treated with or without 1 μM HPA-12 in the presence of 1 μg/mL BFA at 4° C. for 15 minutes prior to addition of [^14C] serine.

[6] = [14C]serine labeling, CHO cells
[7] = [14C]serine labeling, weaker than effect on SM (FIG. 2B)

CCCCCCCCCCCC(=O)NC(CO)CC(O)c1ccccc1 (centres unmarked) [HPA-12, N-(3-hydroxy-1-hydroxymethyl-3-phenylprol)dodecaneamide]
formation of [14C]SM ([1]; 0.1 μM, 2-hour labeling with [14C]serine (FIG. 2A)): significantly inhibits
formation of [14C] (SM), level relative to control ([1]; 1 μM, time course up to 5 hours (FIG. 2B)): approximately 30 % of the drug-free control level
formation of [14C]SM ([1]; 2.5 μM drug, [14C]serine labeling, CHO cells (FIG. 1B)): remarkably inhibited
concentration at which the inhibitory effect on [14C]SM formation reaches a plateau ([1]; 2-hour labeling with [14C]serine (FIG. 2A)): around 1 μM
formation of [14C]phosphatidylethanolamine (PE) [1, 6]: does not affect
formation of [14C]phosphatidylserine (PS) [1, 6]: does not affect
formation of [14C]Cer [1, 7]: significantly inhibited
formation of [14C]GlcCer [1, 7]: significantly inhibited
C6-NBD-SM formed (SM synthase activity) ([2]; 20 μM, substrate C6-NBD-Cer): 168.1 ± 1.7 pmol/mg protein/10 minutes
inhibition of SM synthase ([2]; 20 μM, substrate C6-NBD-Cer): Neither of SM synthase nor GlcCer synthase is inhibited
inhibition of SM synthase activity ([2]; substrate C5-DMB-Cer, data not shown): not observed
activity of serine palmitoyltransferase [3]: does not affect
activity of sphingosine N-acyl transferase [4]: does not affect
formation of [14C]serine-derived SM [5]: no longer inhibits

Reference: patent US6888015B2, “Sphingolipid synthesis inhibitor” (Japan Science and Technology Agency, priority 2001, dated 2005)
